A short description of one data set: in vivo. The conditions noted are these: horse, concentration of C21-C21-desisobutyrylciclesonide in plasma.
The test system of data set [1] is RAO horses. Briefly: Budesonide study: moldy hay challenge, lung function variables and clinical score. It is filed as in vivo. An excerpt: Nozzle A and a […]® inhaler device not available commercially is used in the study.
For data set [2] the following is noted: taken orally; cited from earlier work.
Data set [3] deals with RAO horses. Briefly: Segmented neutrophil and lymphocyte counts in the 1st and 2nd ciclesonide studies. It counts as in vivo. The conditions noted are these: for lymphocytes count / segmented neutrophil count: after administration of dexamethasone 0.066 mg/kg per os; for Lymphocytes / Segmented neutrophils: dexamethasone 0.066 mg/kg per os once daily 14 days, mean, n=8. The procedure: (§1) The commercially available […]® is used in the study.
The segmented neutrophil counts and the lymphocyte counts are determined in the studies above: ciclesonide treatment versus dexamethasone treatment.
Concentration of segmented neutrophils and lymphocytes on day (D): D0, D14 and D21 in the treatment groups of dexamethasone and different doses of ciclesonide (n=8) (mean (SEM)

The test system of data set [4] is RAO horses. Briefly: 1st ciclesonide study: moldy hay challenge, serum cortisol. It is filed as in vivo. The conditions noted are these: dexamethasone 0.066 mg/kg per os once daily; days 3, 5, 7, 10, 14 and 17; p<0.0001.
Data set [5] has as its system RAO horses. Briefly: 2nd ciclesonide study: moldy hay challenge, serum cortisol. It is filed as in vivo. The following applies: dexamethasone 0.066 mg/kg per os once daily; days 3, 5, 7, 10, 14 and 17; p<0.0001.
Text: as §1

The subject of data set [6] is RAO horses. Briefly: 2nd ciclesonide study: moldy hay challenge, lung function variables and weighted clinical score. It is filed as in vivo. The following applies: dexamethasone 0.066 mg/kg per os once daily; after 14 days.
Text: as §1

The test system of data set [7] is RAO horses. Kind of data set: 1st ciclesonide study: moldy hay challenge, lung function variables and breathing effort score. It is filed as in vivo. The conditions noted are these: dexamethasone 0.066 mg/kg per os once daily; after 14 days; p<0.0001.

`C[C@]12C=CC(=O)C=C1CC[C@@H]1[C@@H]2[C@@H](O)C[C@@]2(C)[C@H]1C[C@H]1O[C@@H](C3CCCCC3)O[C@]12C(=O)CO` [C21-C21-desisobutyrylciclesonide]: in the data set “in vivo”, the concentration at 4 h is < 0.25 nM.
Regarding `CCCC1O[C@@H]2C[C@H]3[C@@H]4CCC5=CC(=O)C=C[C@]5(C)[C@H]4[C@@H](O)C[C@]3(C)[C@]2(C(=O)CO)O1` (stereo partly drawn) [budesonide], the “clinical score (breathing effort score) compared to pretreatment values” with RAO horses [1] (all three budesonide doses (450/900/1800 μg/horse twice daily), after 7 and 14 days, p=0.002 to p<0.0001) is on record as “significantly reduced”. In the data set on RAO horses [1] (budesonide 1800 μg/horse ex RESPIMAT twice daily per inhalation, after 14 days, p≤0.0001), the “all lung function variables (transpulmonary pressure, lung resistance, lung elastance) compared to pretreatment values” was “significantly reduced”. In the data set with RAO horses [1] (budesonide 1800 μg/horse ex RESPIMAT twice daily, after 7 or 14 days), the “lung function variables, difference to dexamethasone group” value is reported as “no significant difference”. Moreover, the “clinical score, difference to dexamethasone group” value in the data set with RAO horses [1] (budesonide 900 and 1800 μg/horse ex RESPIMAT twice daily, after 7 and 14 days) was “no significant difference”.
`C[C@@H]1C[C@H]2[C@@H]3CCC4=CC(=O)C=C[C@]4(C)[C@@]3(F)[C@@H](O)C[C@]2(C)[C@@]1(O)C(=O)CO` [dexamethasone]: the “potency relative to prednisone” value in data set [2] is recorded as 7 times. In data set [2], the “potency relative to the naturally occurring hormone cortisol” value was 27 times. The lymphocytes count result in the data set on RAO horses [3] (1st ciclesonide study) and with RAO horses [3] (2nd ciclesonide study) was “decreased” throughout. The segmented neutrophil count result with RAO horses [3] (1st ciclesonide study) and with RAO horses [3] (2nd ciclesonide study) was “increased” each time. For the same compound, in the data set with RAO horses [3] (after treatment with dexamethasone (1st and 2nd ciclesonide study)), the neutrophilia and lymphopenia result was “Neutrophilia and lymphopenia is observed”. For the same compound, the Lymphocytes is 2.1e+09 L⁻¹ in the data set with RAO horses [3] (1st ciclesonide study, D 0); 1.71e+09 L⁻¹ with RAO horses [3] (1st ciclesonide study, D 14); 1.76e+09 L⁻¹ with RAO horses [3] (1st ciclesonide study, D 21); 2.14e+09 L⁻¹ with RAO horses [3] (2nd ciclesonide study, D 0); 1.73e+09 L⁻¹ with RAO horses [3] (2nd ciclesonide study, D 14); 1.73e+09 L⁻¹ in the data set on RAO horses [3] (2nd ciclesonide study, D 21). For the same compound, the Segmented neutrophils in the data set on RAO horses [3] (1st ciclesonide study, D 0) is 4.77e+09 L⁻¹; with RAO horses [3] (1st ciclesonide study, D 14), 6.16e+09 L⁻¹; in the data set on RAO horses [3] (1st ciclesonide study, D 21), 4.27e+09 L⁻¹; with RAO horses [3] (2nd ciclesonide study, D 0), 4.82e+09 L⁻¹; with RAO horses [3] (2nd ciclesonide study, D 14) it was 6.23e+09 L⁻¹; with RAO horses [3] (2nd ciclesonide study, D 21), 4.82e+09 L⁻¹. Moreover, the “serum cortisol levels compared to pretreatment values” in the data set with RAO horses [4] is given as “significantly reduced”. The “serum cortisol levels in comparison to any of the ciclesonide treatment groups” value with RAO horses [4] and with RAO horses [5] was “significantly reduced” throughout. Moreover, the serum cortisol levels result with RAO horses [5] was “significantly reduced”. For the same compound, the “all lung function variables (ΔPL, RL, EL) compared to pretreatment values” in the data set on RAO horses [6] and with RAO horses [7] was “significantly reduced” in each case. Also, the “weighted clinical score compared to pretreatment values” in the data set on RAO horses [6] was “significantly reduced”. Besides, the “clinical score (breathing effort score) compared to pretreatment values” in the data set with RAO horses [1] (dexamethasone 0.066 mg/kg per os once daily, after 7 and 14 days) is listed as “significantly reduced”. Further, the “all lung function variables compared to pretreatment values” with RAO horses [1] (dexamethasone 0.066 mg/kg per os once daily, after 14 days, p≤0.0001) was “significantly reduced”.

These data come from patent publication US10258634B2, “Ciclesonide for the treatment of airway disease in horses” (Boehringer Ingelheim Vetmedica GmbH, priority 2012, dated 2019).
